Molecules are shown by their SMILES. Activity calls are given as the source filed them. The rule behind the calls is not given here.

Results on one molecule are retold here after ChEMBL document CHEMBL4346710, “Discovery of 7H-pyrrolo[2,3-d]pyrimidine derivatives as selective covalent irreversible inhibitors of interleukin-2-inducible T-cell kinase (Itk)” (Eur J Med Chem, 2019).

The target in assay [1] is T1, Tyrosine-protein kinase JAK3 (Homo sapiens, UniProt P52333).
T1 sequence (P52333 whole entry): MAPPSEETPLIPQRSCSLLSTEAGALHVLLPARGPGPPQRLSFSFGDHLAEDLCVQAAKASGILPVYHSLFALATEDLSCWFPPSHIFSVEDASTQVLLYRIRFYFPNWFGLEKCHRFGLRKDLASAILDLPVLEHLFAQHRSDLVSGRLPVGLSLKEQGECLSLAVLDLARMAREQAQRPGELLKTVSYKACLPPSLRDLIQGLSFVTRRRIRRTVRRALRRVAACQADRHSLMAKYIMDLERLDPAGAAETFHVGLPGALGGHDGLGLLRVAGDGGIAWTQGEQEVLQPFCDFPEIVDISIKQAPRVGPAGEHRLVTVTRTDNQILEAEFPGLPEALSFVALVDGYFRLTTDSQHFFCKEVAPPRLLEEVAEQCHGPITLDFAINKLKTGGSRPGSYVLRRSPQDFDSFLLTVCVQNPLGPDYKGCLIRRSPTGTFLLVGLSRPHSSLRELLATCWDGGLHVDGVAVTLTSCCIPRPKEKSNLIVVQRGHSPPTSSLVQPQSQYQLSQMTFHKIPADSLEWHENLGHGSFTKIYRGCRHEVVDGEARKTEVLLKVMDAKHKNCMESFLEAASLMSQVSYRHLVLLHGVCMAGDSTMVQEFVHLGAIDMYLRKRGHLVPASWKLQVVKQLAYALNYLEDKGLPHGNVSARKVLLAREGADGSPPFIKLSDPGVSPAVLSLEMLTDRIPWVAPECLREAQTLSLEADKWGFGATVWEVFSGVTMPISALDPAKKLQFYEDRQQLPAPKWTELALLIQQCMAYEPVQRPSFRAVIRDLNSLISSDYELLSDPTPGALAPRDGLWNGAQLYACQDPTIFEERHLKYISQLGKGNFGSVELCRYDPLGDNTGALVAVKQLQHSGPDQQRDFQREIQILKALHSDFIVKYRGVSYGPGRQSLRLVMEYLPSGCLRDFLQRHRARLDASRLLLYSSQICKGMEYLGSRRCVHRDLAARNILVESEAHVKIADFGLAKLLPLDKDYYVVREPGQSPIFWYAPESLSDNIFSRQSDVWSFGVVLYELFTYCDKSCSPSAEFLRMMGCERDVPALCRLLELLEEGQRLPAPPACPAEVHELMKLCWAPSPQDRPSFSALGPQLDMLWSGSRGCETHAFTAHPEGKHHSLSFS
The experiment in a line: Inhibition of recombinant human N-terminal His6-tagged JAK3 (781 to end residues) expressed in baculovirus infected Sf21 cells using STK as substrate by HTRF assay.

For the next assay, the system named is CCRF-CEM. The experiment in a line: Growth inhibition of human CCRF-CEM cells incubated for 72 hrs by CellTiter-Glo luminescent cell viability assay. The class given is functional. Background: ATP-based viability assays read luminescence as a measure of living cells.
The species entered for a further assay is Homo sapiens. The assay can be described thus: Selectivity ratio of IC50 for recombinant human full-length N-terminal His6-tagged BTK expressed in baculovirus infected Sf21 insect cells to IC50 for recombinant human N-terminal His6-tagged ITK (352 to 617 residues) expressed in baculovirus infected Sf21 insect cells.
Assay [2] addresses Rho-associated protein kinase 2 (Homo sapiens) (UniProt O75116). The assay can be described thus: Inhibition of recombinant human N-terminal GST-tagged ROCK2 catalytic domain (1 to 552 residues) expressed in baculovirus expression system assessed as enzyme residual activity at 0.4 uM using fluorophore-labeled serine/threonine-13 peptide as substrate incubated for 60 mins by Z'-LYTE assay relative to control.

The target in assay [3] is Ephrin type-A receptor 2 (Homo sapiens) (UniProt P29317). The experiment in a line: Inhibition of recombinant human GST-tagged EPHA2 cytoplasmic domain (560 to 976 residues) expressed in baculovirus expression system assessed as enzyme residual activity at 0.4 uM using tyrosine-01 peptide as substrate incubated for 60 mins by Z'-Lyte assay relative to control.
A short description of assay [4]: Inhibition of tracer 236 binding to recombinant full length human C-terminal His-tagged AMPK alpha2/beta2/gamma1 expressed in baculovirus infected Sf9 cells assessed as enzyme residual activity at 0.4 uM incubated for 60 mins by Lanthascreen assay relative to control.
In assay [5] the target is Tyrosine-protein kinase BTK (Homo sapiens, UniProt Q06187). The assay can be described thus: Inhibition of recombinant full length human His-tagged BTK cytoplasmic domain expressed in baculovirus expression system assessed as enzyme residual activity at 0.4 uM using fluorophore-labeled tyrosine-1 peptide as substrate incubated for 60 mins by Z'-LYTE assay relative to control.
Tyrosine-protein kinase BTK, sequence (Q06187 whole entry, the tested form may be a part): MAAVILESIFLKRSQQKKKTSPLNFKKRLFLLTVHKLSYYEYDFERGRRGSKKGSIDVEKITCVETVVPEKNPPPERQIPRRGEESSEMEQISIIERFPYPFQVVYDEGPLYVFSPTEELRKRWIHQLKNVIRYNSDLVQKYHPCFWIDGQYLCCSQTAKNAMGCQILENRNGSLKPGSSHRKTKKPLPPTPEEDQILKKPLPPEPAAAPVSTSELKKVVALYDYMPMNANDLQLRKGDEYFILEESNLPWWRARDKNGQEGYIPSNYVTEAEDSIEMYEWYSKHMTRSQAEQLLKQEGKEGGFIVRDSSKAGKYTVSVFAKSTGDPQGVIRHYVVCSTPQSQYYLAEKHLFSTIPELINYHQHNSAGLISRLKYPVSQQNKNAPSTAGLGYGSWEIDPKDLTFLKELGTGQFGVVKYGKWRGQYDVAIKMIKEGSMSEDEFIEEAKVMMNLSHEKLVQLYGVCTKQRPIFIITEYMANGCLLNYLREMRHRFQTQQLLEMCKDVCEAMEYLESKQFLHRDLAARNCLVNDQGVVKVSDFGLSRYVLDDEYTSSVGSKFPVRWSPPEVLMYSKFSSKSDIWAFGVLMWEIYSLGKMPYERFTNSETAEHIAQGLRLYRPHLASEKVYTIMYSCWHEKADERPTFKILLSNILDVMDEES

Assay [6] concerns the target Mitogen-activated protein kinase 8 (Homo sapiens) (UniProt P45983). The assay can be described thus: Inhibition of tracer 236 binding to recombinant full length human His-tagged MAPK8 expressed in baculovirus expression system assessed as enzyme residual activity at 0.4 uM incubated for 60 mins by Lanthascreen assay relative to control. For orientation: In TR-FRET formats the signal depends on donor and acceptor labels being close together.

Assay [7] addresses Tyrosine-protein kinase Fyn (Homo sapiens) (UniProt P06241). The assay can be described thus: Inhibition of recombinant full length C-terminal His-tagged human FYN cytoplasmic domain expressed in baculovirus expression system assessed as enzyme residual activity at 0.4 uM using fluorophore-labeled tyrosine-2 peptide as substrate by Z'-Lyte assay relative to control.
Assay [8] addresses Interleukin-1 receptor-associated kinase 4 (Homo sapiens) (UniProt Q9NWZ3). The assay can be described thus: Inhibition of recombinant human His-tagged IRAK4 expressed in baculovirus expression system assessed as enzyme residual activity at 0.4 uM using fluorophore-labeled serine/threonine-7 peptide as substrate incubated for 60 mins by Z'-LYTE assay relative to control.
The target in assay [9] is Tyrosine-protein kinase JAK3 (Homo sapiens) (UniProt P52333). The assay can be described thus: Inhibition of recombinant human GST-tagged JAK3 catalytic domain (781 to 1124 residues) expressed in baculovirus expression system assessed as enzyme residual activity at 0.4 uM using fluorophore-labeled tyrosine-6 peptide as substrate incubated for 60 mins by Z'-LYTE assay relative to control.

In assay [10] the target is Tyrosine-protein kinase Blk (Homo sapiens, UniProt P51451). The experiment in a line: Inhibition of recombinant full-length human His-tagged BLK cytoplasmic domain expressed in baculovirus expression system assessed as enzyme residual activity at 0.4 uM using fluorophore-labeled tyrosine-1 peptide as substrate incubated for 60 mins by Z'-LYTE assay relative to control.
Tyrosine-protein kinase Blk, sequence (P51451 2-505 limits assumed): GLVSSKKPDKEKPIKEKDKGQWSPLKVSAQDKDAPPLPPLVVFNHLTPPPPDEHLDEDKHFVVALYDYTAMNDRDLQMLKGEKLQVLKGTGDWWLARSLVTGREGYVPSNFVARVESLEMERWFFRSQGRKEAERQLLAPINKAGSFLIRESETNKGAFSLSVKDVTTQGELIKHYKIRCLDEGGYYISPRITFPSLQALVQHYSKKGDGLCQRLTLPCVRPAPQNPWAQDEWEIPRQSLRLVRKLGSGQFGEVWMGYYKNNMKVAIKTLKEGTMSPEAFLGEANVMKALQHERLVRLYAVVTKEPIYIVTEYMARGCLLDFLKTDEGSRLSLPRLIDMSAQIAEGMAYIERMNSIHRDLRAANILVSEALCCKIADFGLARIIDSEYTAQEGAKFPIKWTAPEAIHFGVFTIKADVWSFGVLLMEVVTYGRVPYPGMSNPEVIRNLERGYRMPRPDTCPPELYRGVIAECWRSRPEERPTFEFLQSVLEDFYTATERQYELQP

The target in assay [11] is Receptor-type tyrosine-protein kinase FLT3 (Homo sapiens) (UniProt P36888). The assay can be described thus: Inhibition of recombinant human His-tagged FLT3 cytoplasmic domain (564 to 958 residues) expressed in baculovirus expression system assessed as enzyme residual activity at 0.4 uM using fluorophore-labeled tyrosine-2 peptide as substrate incubated for 60 mins by Z'-LYTE assay relative to control.
Receptor-type tyrosine-protein kinase FLT3 (Homo sapiens), sequence (P36888 whole entry, the tested form may be a part): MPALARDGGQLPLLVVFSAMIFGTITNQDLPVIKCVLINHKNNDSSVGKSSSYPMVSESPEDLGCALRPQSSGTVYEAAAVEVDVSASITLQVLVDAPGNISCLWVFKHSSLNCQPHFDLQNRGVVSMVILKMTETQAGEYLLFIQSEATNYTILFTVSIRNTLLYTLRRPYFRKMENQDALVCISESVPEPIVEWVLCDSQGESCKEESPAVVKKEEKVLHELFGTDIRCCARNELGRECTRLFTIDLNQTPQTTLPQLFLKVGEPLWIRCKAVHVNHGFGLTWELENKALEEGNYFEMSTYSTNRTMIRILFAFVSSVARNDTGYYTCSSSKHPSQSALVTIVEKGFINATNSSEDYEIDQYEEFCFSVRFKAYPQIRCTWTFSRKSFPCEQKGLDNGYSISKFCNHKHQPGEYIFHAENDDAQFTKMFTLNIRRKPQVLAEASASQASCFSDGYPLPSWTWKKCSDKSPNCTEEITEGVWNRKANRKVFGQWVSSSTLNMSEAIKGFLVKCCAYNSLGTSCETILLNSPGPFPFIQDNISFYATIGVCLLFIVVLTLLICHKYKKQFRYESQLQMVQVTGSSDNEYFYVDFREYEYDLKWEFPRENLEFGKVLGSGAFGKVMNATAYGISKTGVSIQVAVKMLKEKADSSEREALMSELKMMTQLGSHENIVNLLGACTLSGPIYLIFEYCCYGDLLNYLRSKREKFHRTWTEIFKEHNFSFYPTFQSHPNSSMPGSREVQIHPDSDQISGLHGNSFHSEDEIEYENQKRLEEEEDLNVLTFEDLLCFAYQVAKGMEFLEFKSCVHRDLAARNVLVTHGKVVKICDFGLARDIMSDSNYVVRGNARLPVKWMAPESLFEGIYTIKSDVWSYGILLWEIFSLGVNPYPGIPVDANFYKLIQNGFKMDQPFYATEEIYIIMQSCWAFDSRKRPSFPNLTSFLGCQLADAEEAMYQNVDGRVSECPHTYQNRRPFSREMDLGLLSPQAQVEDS

In the next assay the test system is Jurkat. The assay can be described thus: Induction of apoptosis in human Jurkat cells assessed as downregulation of caspase3 at 1 to 20 uM incubated for 24 hrs by Western blot analysis. Type of assay: functional, cell-based. On the technique in general: Immunoblotting shows a protein as a band on a membrane.
For another assay, the system named is MOLT-4. The experiment in a line: Induction of apoptosis in human MOLT4 cells assessed as downregulation of PARP at 1 to 20 uM incubated for 24 hrs by Western blot analysis. Type of assay: functional, cell-based.

Rho-associated protein kinase 2 (Homo sapiens), sequence (O75116 whole entry, looked up, the tested form may be a part): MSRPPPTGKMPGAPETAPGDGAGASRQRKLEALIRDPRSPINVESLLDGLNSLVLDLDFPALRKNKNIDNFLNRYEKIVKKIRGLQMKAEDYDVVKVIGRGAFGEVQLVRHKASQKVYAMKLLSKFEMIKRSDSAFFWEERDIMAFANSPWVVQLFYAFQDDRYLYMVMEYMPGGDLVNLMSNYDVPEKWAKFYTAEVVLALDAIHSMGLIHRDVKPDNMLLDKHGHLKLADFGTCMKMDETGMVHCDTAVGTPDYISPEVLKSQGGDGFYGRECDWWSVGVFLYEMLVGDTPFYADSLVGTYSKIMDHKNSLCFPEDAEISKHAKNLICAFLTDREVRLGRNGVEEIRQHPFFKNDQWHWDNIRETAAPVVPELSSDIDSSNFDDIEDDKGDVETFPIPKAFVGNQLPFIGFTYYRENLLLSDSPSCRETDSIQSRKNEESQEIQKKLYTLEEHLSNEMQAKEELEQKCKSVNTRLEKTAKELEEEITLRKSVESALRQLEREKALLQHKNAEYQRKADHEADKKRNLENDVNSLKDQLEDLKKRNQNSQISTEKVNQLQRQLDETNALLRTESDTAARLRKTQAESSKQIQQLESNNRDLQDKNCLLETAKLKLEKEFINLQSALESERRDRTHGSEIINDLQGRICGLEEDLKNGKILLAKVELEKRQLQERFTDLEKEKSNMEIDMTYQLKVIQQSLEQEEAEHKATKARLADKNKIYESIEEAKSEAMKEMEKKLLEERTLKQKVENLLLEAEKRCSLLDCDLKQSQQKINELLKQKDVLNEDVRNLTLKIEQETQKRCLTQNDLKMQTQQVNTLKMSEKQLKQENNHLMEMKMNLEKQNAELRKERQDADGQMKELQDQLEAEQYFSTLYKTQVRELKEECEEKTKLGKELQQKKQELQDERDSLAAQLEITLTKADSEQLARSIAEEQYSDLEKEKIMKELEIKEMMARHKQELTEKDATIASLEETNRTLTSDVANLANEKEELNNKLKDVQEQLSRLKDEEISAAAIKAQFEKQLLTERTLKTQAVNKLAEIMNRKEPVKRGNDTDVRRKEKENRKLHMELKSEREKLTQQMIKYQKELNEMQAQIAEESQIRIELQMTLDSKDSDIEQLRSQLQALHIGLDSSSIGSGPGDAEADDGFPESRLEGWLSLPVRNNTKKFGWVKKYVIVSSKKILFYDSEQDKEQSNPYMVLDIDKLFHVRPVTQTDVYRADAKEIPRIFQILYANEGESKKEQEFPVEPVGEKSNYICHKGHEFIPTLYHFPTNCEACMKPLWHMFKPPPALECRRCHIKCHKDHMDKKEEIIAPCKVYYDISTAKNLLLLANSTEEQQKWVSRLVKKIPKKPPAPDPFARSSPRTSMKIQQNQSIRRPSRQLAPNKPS
Interleukin-1 receptor-associated kinase 4 (Homo sapiens), sequence (Q9NWZ3 whole entry, the tested form may be a part): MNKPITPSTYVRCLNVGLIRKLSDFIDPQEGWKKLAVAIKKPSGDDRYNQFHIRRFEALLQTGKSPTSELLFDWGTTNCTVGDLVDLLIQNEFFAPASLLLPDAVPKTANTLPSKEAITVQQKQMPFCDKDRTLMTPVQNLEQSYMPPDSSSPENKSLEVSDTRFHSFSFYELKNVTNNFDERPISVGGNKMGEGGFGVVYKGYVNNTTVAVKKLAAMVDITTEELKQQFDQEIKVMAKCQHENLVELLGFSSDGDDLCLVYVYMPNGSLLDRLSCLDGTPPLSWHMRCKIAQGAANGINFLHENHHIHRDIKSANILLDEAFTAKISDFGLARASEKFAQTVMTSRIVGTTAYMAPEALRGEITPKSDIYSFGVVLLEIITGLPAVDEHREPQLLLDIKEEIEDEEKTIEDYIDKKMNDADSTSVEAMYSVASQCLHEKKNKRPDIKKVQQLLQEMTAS
Tyrosine-protein kinase Fyn (Homo sapiens), sequence (P06241 2-537 limits assumed): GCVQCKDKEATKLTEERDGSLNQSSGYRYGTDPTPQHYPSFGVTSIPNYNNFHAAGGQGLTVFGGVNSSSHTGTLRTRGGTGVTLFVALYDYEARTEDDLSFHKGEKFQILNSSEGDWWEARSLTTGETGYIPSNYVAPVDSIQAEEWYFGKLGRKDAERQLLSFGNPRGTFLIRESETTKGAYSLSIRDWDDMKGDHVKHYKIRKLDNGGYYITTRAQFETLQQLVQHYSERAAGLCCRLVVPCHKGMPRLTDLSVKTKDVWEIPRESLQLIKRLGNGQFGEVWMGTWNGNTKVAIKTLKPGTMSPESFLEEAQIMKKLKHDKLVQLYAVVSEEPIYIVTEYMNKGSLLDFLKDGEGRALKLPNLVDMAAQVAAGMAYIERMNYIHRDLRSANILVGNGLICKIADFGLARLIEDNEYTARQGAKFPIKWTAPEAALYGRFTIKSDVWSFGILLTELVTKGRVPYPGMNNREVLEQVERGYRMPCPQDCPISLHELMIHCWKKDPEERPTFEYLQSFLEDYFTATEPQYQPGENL
Mitogen-activated protein kinase 8 (Homo sapiens), sequence (P45983 whole entry): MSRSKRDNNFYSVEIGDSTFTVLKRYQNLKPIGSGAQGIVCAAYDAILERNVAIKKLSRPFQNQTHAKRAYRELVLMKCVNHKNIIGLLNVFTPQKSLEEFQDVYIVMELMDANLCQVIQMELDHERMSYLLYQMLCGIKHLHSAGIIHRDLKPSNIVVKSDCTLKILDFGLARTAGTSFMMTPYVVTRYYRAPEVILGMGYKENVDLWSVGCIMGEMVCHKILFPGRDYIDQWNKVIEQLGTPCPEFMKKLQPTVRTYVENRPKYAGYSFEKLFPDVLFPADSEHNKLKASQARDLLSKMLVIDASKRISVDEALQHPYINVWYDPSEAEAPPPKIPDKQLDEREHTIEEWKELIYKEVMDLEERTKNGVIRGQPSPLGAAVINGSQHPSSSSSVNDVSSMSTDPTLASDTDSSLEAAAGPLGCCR

In general, IC50 refers to the concentration at which inhibition is half-maximal. In general, GI50 refers to the concentration at which growth is held to half of that of the control. A low value points to more potent growth inhibition. `C=CC(=O)N1CCC(Oc2nc(Nc3ccc(N4CCOCC4)cc3)nc3[nH]cc(-c4cncc(NC)n4)c23)CC1`: the IC50 in assay [1] came out at 0.123 µM. This molecule returned a 50% growth inhibitory concentration (GI50) in the assay with CCRF-CEM of 0.127 µM. Also, the Ratio IC50 in the assay listed under Homo sapiens was 250. For the same molecule, the Activity was determined as 96.3% in [2]; 95% in assay [3]; 64.3% in assay [4]; 41.3% in assay [5]; 25% in [6]; 21% in assay [7]. In addition, the Activity in [8] was 19.3%; in assay [9] it was 16.3%; in [10], 9%; in assay [11], 2.3%. Moreover, the outcome with Jurkat and in the assay with MOLT-4 was Active.
